From patent US9006426B2, “Squaric acid derivatives as inhibitors of the nicotinamide” (Topotarget A/S, priority 2008, dated 2015)
Counter-ions that a name gives are not always drawn.

system: A2780 cells; test: In vitro cell proliferation assay (WST-1 assay); type: cell-based; details: Homo sapiens, total incubation time 72 h, WST-1 reagent
Experimental: In Vitro Cell Proliferation Assay (WST-1 Assay)
A2780 cells were seeded in 96-well plates at 3×10^3 cells/well in 100 μL of culture medium, 8 wells were left empty for media only controls.
After 24 h the compound titrations were performed, in a separate dilution plate, by serially diluting the compounds of general formula (I) in culture medium. A 100 μL of each dilution was added to the plated cells, this was done in triplicate, and controls (e.g. DMSO and blanks) were included. The plates were incubated for 24 h at 37° C. in a CO2 incubator. The compound titrations were repeated in a separate dilution plate after 24 h. The media plus compound from the assay plates were then aspirated. A 100 μL of media was then added to all wells, followed by 100 μL of each compound dilution. The plates were incubated for a further 48 h at 37° C. in a CO2 incubator (total incubation time 72 h). The number of viable cells was then assessed using Cell Proliferation Reagent WST-1. 10 μL of WST-1 reagent added to each well and incubated for one to four hours at 37° C. in CO2 incubator. The absorbance was measured (450 nm/690 nm).
The activity of compounds of general formula (I) in reducing the number of viable cells was calculated as: % activity=[(S^c−B)/(S^o−B)]×100
S^c denotes signal measured in the presence of test compound, S^o denotes signal detected in the absence of compound, and B denotes background signal, measured in blank wells containing medium only. Analyse data using GraphPad Prism.
Results can be seen in Table 1, wherein IC50 is the concentration giving 50% activity.

| SMILES | IC50 [nM] |
| --- | --- |
| COCCOCCOCCN(OCCC1CCCCC1)S(=O)(=O)CCCCCCNc1c(Nc2ccncc2)c(=O)c1=O [Compound 1008, N-(2-cyclohexylethoxy)-6-(3,4-dioxo-2-(pyridin-4-ylamino)cyclobut-1-enylamino)-N-(2-(2-(2-methoxyethoxy)ethoxy)ethyl)hexane-1-sulfonamide] | 0.48 |
| O=c1c(NCCCCCCS(=O)(=O)N(Cc2ccccc2)OCCC2CCCCC2)c(Nc2ccncc2)c1=O [Compound 1010, N-benzyl-N-(2-cyclohexylethoxy)-6-(3,4-dioxo-2-(pyridin-4-ylamino)cyclobut-1-enylamino)hexane-1-sulfonamide] | 0.93 |
| O=C(CCCCCCNc1c(Nc2ccncc2)c(=O)c1=O)N(Cc1ccccc1)OCCN1CCOCC1 [Compound 1016, N-benzyl-7-(3,4-dioxo-2-(pyridin-4-ylamino)cyclobut-1-enylamino)-N-(2-morpholinoethoxy)heptanamide] | 0.56 |
| O=c1c(NCCCCCCS(=O)(=O)N(CCCN2CCOCC2)CCN2CCOCC2)c(Nc2ccncc2)c1=O [Compound 1019, 6-(3,4-dioxo-2-(pyridin-4-ylamino)cyclobut-1-enylamino)-N-(2-morpholinoethyl)-N-(3-morpholinopropyl)hexane-1-sulfonamide] | 26 |
| O=C(OCCCCCNc1c(Nc2ccncc2)c(=O)c1=O)N(OCCN1CCOCC1)C1CCCCC1 [Compound 1026, 5-(3,4-dioxo-2-(pyridin-4-ylamino)cyclobut-1-enylamino)pentyl cyclohexyl(2-morpholinoethoxy)carbamate] | 0.6 |
| O=c1c(NCCCCCCS(=O)(=O)N2CCCCCC2)c(Nc2ccncc2)c1=O [Compound 1030, 3-(6-(azepan-1-ylsulfonyl)hexylamino)-4-(pyridin-4-ylamino)cyclobut-3-ene-1,2-dione] | 0.53 |
| O=c1c(NCCCCCCS(=O)(=O)N2CCOCC2)c(Nc2ccncc2)c1=O [Compound 1031, 3-(6-(morpholinosulfonyl)hexylamino)-4-(pyridin-4-ylamino)cyclobut-3-ene-1,2-dione] | 41.3 |
| O=C(CCCCCCNc1c(Nc2cccnc2)c(=O)c1=O)N(OCCN1CCOCC1)C1CCCCC1 [Compound 1033, N-cyclohexyl-7-(3,4-dioxo-2-(pyridin-3-ylamino)cyclobut-1-enylamino)-N-(morpholinoethoxy)heptanamide] | 0.6 |
| O=C(NCCCCCNc1c(Nc2ccncc2)c(=O)c1=O)N(OCCN1CCOCC1)C1CCCCC1 [Compound 1039, 1-cyclohexyl-3-(5-(3,4-dioxo-2-(pyridin-4-ylamino)cyclobut-1-enylamino)pentyl)-1-(2-morphinethoxy)urea] | 4.49 |
| O=c1c(NCCCCCCS(=O)(=O)N(CCCN2CCOCC2)C2CCCCC2)c(Nc2ccncc2)c1=O [Compound 1050, N-Cyclohexyl-6-(3,4-dioxo-2-(pyridin-4-ylamino)cyclobut-1-enylamino)-N-(3-morpholinopropyl)hexane-1-sulfonamide] | 1.19 |
| O=c1c(NCCCCCS(=O)(=O)N(OCCN2CCOCC2)C2CCCCC2)c(Nc2ccncc2)c1=O [Compound 1053, N-Cyclohexyl-5-(3,4-dioxo-2-(pyridin-4-ylamino)cyclobut-1-enylamino)-N-(2-morpholinoethoxy)pentane-1-sulfonamide] | 0.5 |
| O=c1c(NCCCCCCS(=O)(=O)N(OCCN2CCOCC2)C2CCCC2)c(Nc2ccncc2)c1=O [Compound 1058, N-cyclopentyl-6-(3,4-dioxo-2-(pyridin-4-ylamino)cyclobut-1-enylamino)-N-(2-morpholinoethoxy)hexane-1-sulfonamide] | 0.75 |
| O=c1c(NCCCCCCS(=O)(=O)N(OCCN2CCOCC2)C2CCCCCC2)c(Nc2ccncc2)c1=O [Compound 1060, N-cycloheptyl-6-(3,4-dioxo-2-(pyridin-4-ylamino)cyclobut-1-enylamino)-N-(2-morpholinoethoxy)hexane-1-sulfonamide] | 0.69 |
| O=c1c(NCCCCCCS(=O)(=O)N(CCN2CCOCC2)C2CCCCC2)c(Nc2ccncc2)c1=O [Compound 1067, N-cyclohexyl-6-(3,4-dioxo-2-(pyridin-4-ylamino)cyclobut-1-enylamino)-N-(2-morpholinoethyl)hexane-1-sulfonamide] | 1.13 |
| CCOP(=O)(CCCCCCNc1c(Nc2ccncc2)c(=O)c1=O)NC1CCCCC1 (centres unmarked) [Compound 1068, Ethyl N-cyclohexyl-P-(6-(3,4-dioxo-2-(pyridin-4-ylamino)cyclobut-1-enylamino)hexyl)phosphonimidate] | 0.18 |
| O=c1c(NCCCCCCS(=O)(=O)N(CCN2CCOCC2)c2ccc(Cl)cc2)c(Nc2ccncc2)c1=O [Compound 1080, N-(4-chlorophenyl)-6-(3,4-dioxo-2-(pyridin-4-ylamino)cyclobut-1-enylamino)-N-(2-morpholinoethyl)hexane-1-sulfonamide] | 0.66 |

Continued by falling IC50, values first:

| IC50 [nM] | SMILES |
| --- | --- |
| 0.45 | O=c1c(NCCCCCCS(=O)(=O)N(OCCN2CCOCC2)C2CCCCC2)c(Nc2ccncc2)c1=O [Compound 1051, N-Cyclohexyl-6-(3,4-dioxo-2-(pyridin-4-ylamino)cyclobut-1-enylamino)-N-(2-morpholinoethoxy)hexane-1-sulfonamide oxalate] |
| 0.43 | O=c1c(NCCCCCCS(=O)(=O)N(CCN2CCOCC2)OCCC2CCCCC2)c(Nc2ccncc2)c1=O [Compound 1009, N-(2-cyclohexylethoxy)-6-(3,4-dioxo-2-(pyridin-4-ylamino)cyclobut-1-enylamino)-N-(2-morpholinoethyl)hexane-1-sulfonamide] |
| 0.42 | O=c1c(NCCCCCCS(=O)(=O)N(CCCN2CCOCC2)C2CCC2)c(Nc2ccncc2)c1=O [Compound 1062, N-cyclobutyl-6-(3,4-dioxo-2-(pyridin-4-ylamino)cyclobut-1-enylamino)-N-(3-morpholinopropyl)hexane-1-sulfonamide] |
| 0.42 | O=c1c(NCCCCCS(=O)(=O)N(OCCN2CCOCC2)C2CCCC2)c(Nc2ccncc2)c1=O [Compound 1078, N-cyclopentyl-6-(3,4-dioxo-2-(pyridin-4-ylamino)cyclobut-1-enylamino)-N-(2-morpholinoethoxy)pentane-1-sulfonamide] |
| 0.3 | O=c1c(NCCCCCCCS(=O)(=O)N(OCCN2CCOCC2)C2CCCCC2)c(Nc2ccncc2)c1=O [Compound 1052, N-Cyclohexyl-7-(3,4-dioxo-2-(pyridin-4-ylamino)cyclobut-1-enylamino)-N-(2-morpholinoethoxy)heptane-1-sulfonamide] |
| 0.26 | O=C(CCCCCCCNc1c(Nc2ccncc2)c(=O)c1=O)N(Cc1ccccc1)OCCN1CCOCC1 [Compound 1018, N-benzyl-8-(3,4-dioxo-2-(pyridin-4-ylamino)cyclobut-1-enylamino)-N-(2-morpholinoethoxy)octanamide] |
| 0.25 | O=c1c(NCCCCCCS(=O)(=O)N(CCN2CCOCC2)C2CCCCCC2)c(Nc2ccncc2)c1=O [Compound 1021, N-cycloheptyl-6-(3,4-dioxo-2-(pyridin-4-ylamino)cyclobut-1-enylamino)-N-(2-morpholinoethyl)hexane-1-sulfonamide] |
| 0.25 | CN(OCc1ccccc1)S(=O)(=O)CCCCCCNc1c(Nc2ccncc2)c(=O)c1=O [Compound 1076, N-(benzyloxy)-6-(3,4-dioxo-2-(pyridin-4-ylamino)cyclobut-1-enylamino)-N-methylhexane-1-sulfonamide] |
| 0.12 | CC(C)N(OCCN1CCOCC1)S(=O)(=O)CCCCCCNc1c(Nc2ccncc2)c(=O)c1=O [Compound 1047, 6-(3,4-dioxo-2-(pyridin-4-ylamino)cyclobut-1-enylamino)-N-isopropyl-N-(2-morpholinoethoxy)hexane-1-sulfonamide] |
| 0.085 | CN(OCCC1CCCCC1)S(=O)(=O)CCCCCCNc1c(Nc2ccncc2)c(=O)c1=O [Compound 1011, N-(2-cyclohexylethoxy)-6-(3,4-dioxo-2-(pyridin-4-ylamino)cyclobut-1-enylamino)-N-methylhexane-1-sulfonamide] |
| 0.08 | CN(C1CCCCCC1)S(=O)(=O)CCCCCCNc1c(Nc2ccncc2)c(=O)c1=O [Compound 1027, N-cycloheptyl-6-(3,4-dioxo-2-(pyridin-4-ylamino)cyclobut-1-enylamino)-N-methylhexane-1-sulfonamide] |
| 0.066 | O=c1c(NCCCCCCS(=O)(=O)N(CCN2CCOCC2)OCc2ccccc2)c(Nc2ccncc2)c1=O [Compound 1077, N-(benzyloxy)-6-(3,4-dioxo-2-(pyridin-4-ylamino)cyclobut-1-enylamino)-N-(2-morpholinoethyl)hexane-1-sulfonamide] |
| 0.03 | O=C(CCCCCCNc1c(Nc2ccncc2)c(=O)c1=O)N(OCCN1CCOCC1)C1CCCCC1 [Compound 1007, N-cyclohexyl-7-(3,4-dioxo-2-(pyridin-4-ylamino)cyclobut-1-enylamino)-N-(2-morpholinoethoxy)heptanamide] |
